Laboratory results reported in patent publication US8999998B2, “Pyrazolopyrimidine JAK inhibitor compounds and methods” (Genentech, Inc., priority 2009, dated 2015).

Tests used:
Assay type in all cases: biochemical
[1] = target: JAK2 kinase domain (Homo sapiens (Human), UniProt O60674); experiment: JAK2 inhibition assay (Caliper LabChip, isolated kinase domain); settings: 25 uM ATP, 0.2 nM JAK2; read-out: JAK2 enzymatic activity (Ki)
Excerpt: (§1) The catalytically active kinase domain of human JAK1, JAK2, JAK3 or TYK2 was purified from extracts of SF9 insect cells infected with a recombinant baculovirus expression vector encoding the human JAK1, JAK2, JAK3 or TYK2 kinase domains (JAK1 amino acid residues N852-D1154 according to the numbering of GenBank sequence accession number P23458, JAK2 amino acid residues D812-G1132 according to the numbering of GenBank sequence accession number NP_004963.1; JAK3 amino acid residues S783-S1124 according to the numbering of GenBank sequence accession number P52333, and TYK2 amino acid residues N873-C1187 according to the numbering of GenBank sequence accession number P29597). The activity of the JAK1, JAK2, JAK3 or TYK2 kinase domains can be measured by a number of direct and indirect methods, including quantification of phosphorylation of peptide substrates derived from the human JAK3 protein (Saltzman et al., Biochem. Biophys. Res. Commun. 246:627-633 (2004)). The activity of the JAK1, JAK2, JAK3 or TYK2 kinase domains was measured in vitro by monitoring phosphorylation of JAK3 derived peptides using the Caliper LabChip technology (see Examples).
(§2) The activity of the isolated JAK1, JAK2 or TYK2 kinase domain was measured by monitoring phosphorylation of a peptide derived from JAK3 ([…] fluorescently labeled on the N-terminus with 5-carboxyfluorescein using the Caliper LabChip technology (Caliper Life Sciences, Hopkinton, Mass.). […] Reactions were incubated at 22° C. in 384-well polypropylene microtiter plates for 30 minutes and then stopped by addition of 25 uL of an EDTA containing solution (100 mM Hepes pH 7.2, 0.015% Brij-35, 150 mM EDTA), resulting in a final EDTA concentration of 50 mM. After termination of the kinase reaction, the proportion of phosphorylated product was determined as a fraction of total peptide substrate using the Caliper LabChip 3000 according to the manufacturer's specifications. Ki values were then determined using the Morrison tight binding model. Morrison, J. F., Biochim. Biophys. Acta. 185:269-296 (1969); William, J. W. and Morrison, J. F., Meth. Enzymol., 63:437-467 (1979).

[2] = target: JAK1 kinase domain (Homo sapiens (Human), UniProt P23458); experiment: JAK1 inhibition assay (Caliper LabChip, isolated kinase domain); settings: 25 uM ATP, 1.5 nM JAK1; read-out: JAK1 enzymatic activity (Ki)
Excerpt: as §1, §2

[3] = target: JAK3 kinase domain (Homo sapiens (Human), UniProt P52333); experiment: JAK3 inhibition assay (Caliper LabChip, isolated kinase domain); settings: 5 uM ATP, 5 nM JAK3; read-out: JAK3 enzymatic activity (Ki)
Excerpt: as §1, with “Previous studies have shown that the isolated kinase domains of human JAK1, JAK2, JAK3 or TYK2 phosphorylate peptide substrates in in vitro kinase assays (Saltzman et al., Biochem. Biophys. Res. Commun. 246:627-633 (2004)). The catalytically” for “The catalytically”
as §2, with “JAK3” for “JAK1, JAK2 or TYK2”

[4] = target: TYK2 kinase domain (Homo sapiens (Human), UniProt P29597); experiment: TYK2 inhibition assay (Caliper LabChip, isolated kinase domain); settings: 25 uM ATP, 1 nM TYK2; read-out: TYK2 enzymatic activity (Ki)
Excerpt: as §1, §2

JAK1 kinase domain, sequence (P23458 852-1154): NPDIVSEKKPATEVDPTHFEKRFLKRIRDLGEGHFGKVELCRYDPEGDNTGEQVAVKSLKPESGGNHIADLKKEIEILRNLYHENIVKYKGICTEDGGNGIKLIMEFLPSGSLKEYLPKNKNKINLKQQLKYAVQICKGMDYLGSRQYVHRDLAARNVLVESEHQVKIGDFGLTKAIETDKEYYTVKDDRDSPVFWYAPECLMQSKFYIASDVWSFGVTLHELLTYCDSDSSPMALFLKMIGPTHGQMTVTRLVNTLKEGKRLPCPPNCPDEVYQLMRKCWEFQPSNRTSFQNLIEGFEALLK
JAK3 kinase domain, sequence (P52333 783-1124): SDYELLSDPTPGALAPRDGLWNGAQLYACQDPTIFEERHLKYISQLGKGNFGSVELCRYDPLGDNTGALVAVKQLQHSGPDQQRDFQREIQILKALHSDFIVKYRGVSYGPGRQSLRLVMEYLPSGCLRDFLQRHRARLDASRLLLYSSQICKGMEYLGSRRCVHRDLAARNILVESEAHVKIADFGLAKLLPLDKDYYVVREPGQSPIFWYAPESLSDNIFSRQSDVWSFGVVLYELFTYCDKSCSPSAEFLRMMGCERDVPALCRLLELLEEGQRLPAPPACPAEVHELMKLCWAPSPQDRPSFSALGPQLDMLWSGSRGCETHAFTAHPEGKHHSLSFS
TYK2 kinase domain, sequence (P29597 873-1187): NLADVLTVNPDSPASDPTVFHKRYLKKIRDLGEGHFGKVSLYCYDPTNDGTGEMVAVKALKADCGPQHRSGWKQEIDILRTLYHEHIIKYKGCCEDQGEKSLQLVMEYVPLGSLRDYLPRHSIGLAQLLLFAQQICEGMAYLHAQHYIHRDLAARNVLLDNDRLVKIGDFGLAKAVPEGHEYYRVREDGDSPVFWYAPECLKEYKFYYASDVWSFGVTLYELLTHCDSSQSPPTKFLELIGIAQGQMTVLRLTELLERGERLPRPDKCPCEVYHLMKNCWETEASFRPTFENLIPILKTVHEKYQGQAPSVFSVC
JAK2 kinase domain, sequence (O60674 812-1132): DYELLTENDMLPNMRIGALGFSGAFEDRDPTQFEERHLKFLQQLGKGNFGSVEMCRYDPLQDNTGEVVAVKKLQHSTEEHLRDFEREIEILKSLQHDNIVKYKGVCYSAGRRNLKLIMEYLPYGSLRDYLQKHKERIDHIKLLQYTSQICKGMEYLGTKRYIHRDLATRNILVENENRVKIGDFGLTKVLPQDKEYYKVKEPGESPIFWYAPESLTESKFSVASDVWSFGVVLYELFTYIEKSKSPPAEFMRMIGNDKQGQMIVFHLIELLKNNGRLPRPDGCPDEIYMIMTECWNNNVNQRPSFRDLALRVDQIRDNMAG

Row | SMILES | Ki [1] [µM] | Ki [2] [µM] | Ki [3] [µM] | Ki [4] [µM]
1 | O=C(Nc1ccnn1-c1ccccc1Cl)c1cnn2cccnc12 [Example 51, N-(1-(2-chlorophenyl)-1H-pyrazol-5-yl)pyrazolo[1,5-a]pyrimidine-3-carboxamide] | 0.0152 | 0.0837 | 0.15 | 0.098
2 | COc1cnc(C(F)(F)F)cc1-c1nn(CC(C)(C)O)cc1NC(=O)c1cnn2cccnc12 [Example 143, N-(1-(2-hydroxy-2-methylpropyl)-3-(5-methoxy-2-(trifluoromethyl)pyridin-4-yl)-1H-pyrazol-4-yl)pyrazolo[1,5-a]pyrimidine-3-carboxamide] | 0.0385 | 0.012 | 1.5 | 0.35

These reach a lower Ki [1]. Values come first.

Row | Ki [1] [µM] | Ki [2] [µM] | Ki [3] [µM] | Ki [4] [µM] | SMILES
3 | 0.0057 | 0.0403 | 0.102 | 0.131 | Cc1cc(NC(=O)c2cnn3cccnc23)n(-c2cc(C#N)ccc2Cl)n1 [Example 38, N-(1-(2-chloro-5-cyanophenyl)-3-methyl-1H-pyrazol-5-yl)pyrazolo[1,5-a]pyrimidine-3-carboxamide]
4 | 0.0057 | 0.0015 | 0.57 | 0.031 | COc1ccc(Cl)cc1-c1nn(CC(O)(C(F)(F)F)C(F)(F)F)cc1NC(=O)c1cnn2cccnc12 [Example 432, N-(3-(5-chloro-2-methoxyphenyl)-1-(3,3,3-trifluoro-2-hydroxy-2-(trifluoromethyl)propyl)-1H-pyrazol-4-yl)pyrazolo[1,5-a]pyrimidine-3-carboxamide]
5 | 0.0033 | 0.0351 | 0.0739 | 0.104 | Cc1cc(NC(=O)c2cnn3cccnc23)n(-c2cc(Cl)ccc2Cl)n1 [Example 41, N-(1-(2,5-dichlorophenyl)-3-methyl-1H-pyrazol-5-yl)pyrazolo[1,5-a]pyrimidine-3-carboxamide]
